Legend:
[1] = system: kinases present in the cellular extracts (PBMC); assay: Calcineurin kinetic experiments in PBMC cytosolic proteins in the presence or absence of kinase inhibitors (LC-MS/MS of DP-RII peptide); type: biochemical, human; settings: 5 μg PBMC cytosolic proteins from healthy volunteers, FIG. 1; for production of DP-RII peptide vs control: 37° C., up to 120 min, 500 nM okadaic acid, ANOVA test
Description: FIG. 1: Calcineurin kinetic experiments were performed in the presence or absence of two different kinase inhibitors. The production of DP-RII peptide was quantified using LC-MS/MS analysis.
PBMCs obtained from either healthy volunteers or transplant patients were resuspended in a buffer containing 50 mM Tris, pH=7.0, 0.1 mM EGTA, 0.05 mM dithiothreitol, 0.1% tween 20, 0.3 mg/mL albumin, 1 mM MnCl2, 1 mM CaCl2 and protease inhibitors. These cellular extracts were sonicated on ice, and centrifuged for 30 minutes at 10.000 g at 4° C. The supernatants corresponding primarily to the cytosolic fractions were recovered and their protein content was determined. These cellular extracts can be stored at −80° C. for later measurement of CN activity.
One to 5 μg of proteins obtained from PBMC, prepared as described above, were used for measuring calcineurin activity in a reaction mixture containing 500 nM okadaic acid, 1 mg/L internal standard, 20 μM H89, 8 mg/L phosphorylated RII peptide and 0.03 units calmodulin in 15 μL 50 mM Tris-HCl, pH=7.0. Enzymatic reaction was carried out at 37° C. for 30 min and then, the reaction tubes were cooled on ice and the enzymatic reaction was stopped by addition of 15 μL of a solution of 5% trichloroacetic acid. After centrifugation for 5 minutes at 12.000 g at 4° C., supernatants were transferred to […] into 1.5 mL glass autoinjector vials and kept at 4° C. in autosampler before injection. […]
The inventors assessed the kinetics of calcineurin in the presence or not of 2 different kinase inhibitors: H89, an unspecific inhibitor and Rp-adenosine 3′,5′-cyclic monophosphorothioate, a specific inhibitor of PKA.
A first set of experiments was performed using 5 μg of PBMC cytosolic proteins issued from healthy volunteers. […] The enzymatic reactions were stopped at the indicated time points (up to 120 min) and peptide amounts were quantified by LC-MS/MS.

[2] = biological target: protein phosphatase 2B (PP-2B); settings: cited from earlier work
[3] = biological target: protein phosphatase 2A (PP-2A); settings: cited from earlier work
[4] = biological target: protein phosphatase 1 (PP-1); settings: cited from earlier work

Row | SMILES | production of DP-RII peptide vs control [1] | inhibition obtained vs that obtained with the PKA specific inhibitor ([1]; p=0.0163) | IC50 [2] | IC50 [3] | IC50 [4]
1 | O=S(=O)(NCCNC/C=C/c1ccc(Br)cc1)c1cccc2cnccc12 [H89] | significantly higher | significantly higher | – | – | –
2 | C=C1[C@@H](O)[C@@H]2O[C@]3(CC[C@H](/C=C/[C@@H](C)[C@@H]4CC(C)=C[C@@]5(O[C@H](C[C@@](C)(O)C(=O)O)CC[C@H]5O)O4)O3)CC[C@H]2O[C@@H]1[C@@H](O)C[C@H](C)[C@H]1O[C@@]2(CCCCO2)CC[C@H]1C [Okadaic acid, 9,10-Deepithio-9,10-didehydroacanthifolicin] | – | – | > 5000 nM | 0.1 to 1 nM | 20 to 100 nM
3 | Nc1ncnc2c1ncn2[C@@H]1O[C@@H]2COP(O)(=S)O[C@H]2[C@H]1O (stereo partly drawn) [PKA specific inhibitor, Rp-adenosine 3′,5′-cyclic monophosphorothioate] | significantly higher | – | – | – | –

Reference: US9290792B2, “Method for measuring calcineurin activity” (UNIVERSITE PARIS DESCARTES, priority 2012, dated 2016)
